From publication PMC5596366, “Cytotoxicity and genotoxicity of stilbene derivatives in CHO-K1 and HepG2 cell lines” (Genetics and Molecular Biology, 2017)
“Also recorded” adds a separate entry of the source.

Experiments:
[1] = tested on: colon and intestinal tumors; set-up: method as in Schneider et al., 2001; conditions: Min mice; ref Schneider et al., 2001; cited from earlier work
[2] = tested on: CHO-K1 and HepG2 cell lines; test: Clonogenic survival assay, statements not split by cell line; conditions: based on clonogenic survival assay
Description: (§1) CHO-K1 and HepG2 cells were obtained from the Cell Bank of Rio de Janeiro (BCRJ code 0069 and 0103, respectively) and cultured in complete medium containing DMEM+F10 nutrient mixture (1:1, v/v), supplemented with fetal bovine serum (10%, v/v) and penicillin/streptomycin stabilized solution (10 mL/L). Cell cultures were incubated at 37 °C with atmosphere saturated with 5% of CO2. All experiments were conducted between the 3rd and the 8th passages and three experimental repetitions were performed.
(§2) Doxorubicin (DOX) was dissolved in ultrapure sterile water in a stock solution of 900 μM. All reagents were dissolved prior to use and protected from light. For all experiments, cells were submitted to 24 h treatment with different concentrations of the tested substance and DOX was used as positive control in CHO-K1 cells. Benzo(a)pyrene [B(a)P] at 25 μM was used as positive control in HepG2 cells.
The clonogenic assay was performed according to [Franken et al. (2006)]. Briefly, 200 cells/well were plated in 6 well plates containing 3 mL of complete medium. After 4 h of incubation at 37 °C, the cells were treated with different concentrations of the testing stilbenes for 24 h, then each well was washed with PBS 1X and complete medium was added. […] The colonies were counted, and the cell survival fraction was calculated as percent colonies relative to the untreated control.

[3] = set-up: method as in Paul et al. (2010); conditions: in vivo; ref Paul et al. (2010); cited from earlier work
[4] = tested on: CHO-K1 cells; test: Cytokinesis-block micronucleus assay (CBMN); format: cell-based; conditions: for mean micronucleus (MN) frequency: 24 h
Description: as §1, §2
(§3) For the micronucleus test, 10^6 cells were seeded in […] culture flasks containing complete medium. Cell cultures were allowed to grow for 24 h, then treated with different concentrations of the stilbene derivatives. Simultaneously, cytochalasin B (6 μg/mL) was added to each cell culture to inhibit cytokinesis. After 24 h of incubation, cells were harvested with a hypotonic treatment (KCl 0.075 M) and fixed twice with methanol:acetic acid (3:1). Thereafter, the cell suspension was smeared on pre-cleaned microscope slides and air-dried. Staining was performed during 15 min with Giemsa at 5% in Sorensen Buffer (v/v). Microscope slides were washed in tap water and allowed to dry at room temperature overnight. The frequency of micronucleus (MN), frequency of binucleated cells with micronucleus (BCMN) and frequency of nucleoplasmic bridges (NB) were obtained by the analysis of 1000 binucleated cell/culture/treatment as previously described by [Fenech (2000)]. A total of 500 cells/culture/treatment were analyzed to determine the Nuclear Division Index (NDI) by scoring cells with 1, 2, 3 or 4 nuclei and using the formula: NDI= M1+2(M2)+3(M3)+4(M4)/N, where, M1–M4 stand for the number of cells with 1–4 nuclei and N is the total number of viable cells analyzed.

[5] = tested on: HepG2 cells; test: Cytokinesis-block micronucleus assay (CBMN); format: cell-based; conditions: for nuclear bridges (NB): HepG2; for mean micronucleus (MN) frequency: 24 h
Description: as §1, §2, §3

[6] = tested on: HT-29 xenografts; set-up: method as in Paul et al. (2010); conditions: HT-29 xenografts model of colon cancer; ref Paul et al. (2010); cited from earlier work
[7] = tested on: CHO-K1 cells; test: Clonogenic survival assay; format: cell-based; conditions: for survival fraction: 24 h treatment
Description: as §1, §2
(§4) The clonogenic assay was performed according to [Franken et al. (2006)]. Briefly, 200 cells/well were plated in 6 well plates containing 3 mL of complete medium. After 4 h of incubation at 37 °C, the cells were treated with different concentrations of the testing stilbenes for 24 h, then each well was washed with PBS 1X and complete medium was added. The cells were allowed to grow for 7–14 days at 37 °C and 5% of CO2, when colonies were visible. The colonies formed were fixed with methanol/acetic acid/water (1:1:8 v/v/v) and stained with Giemsa 5% (v/v) in Sorensen phosphate buffer (pH 6.8). The colonies were counted, and the cell survival fraction was calculated as percent colonies relative to the untreated control.

[8] = tested on: HepG2 cells; test: Clonogenic survival assay; format: cell-based; conditions: for survival fraction: 24 h treatment
Description: as §1, §2, §4

[9] = tested on: tubulin; set-up: method as in Schneider et al. (2003); conditions: ref Schneider et al. (2003); cited from earlier work
[10] = Cell viability assay (XTT), 24 h treatment; format: cell-based
Description: as §1, §2
To determine cell viability, 10^4 cells/well were seeded on a 96-well plate. […] The plates were washed twice in phosphate buffer saline (PBS 1X) and incubated for 4 h at 37 °C with DMEM without phenol red and supplemented with the reagents of the Cell Proliferation Kit (XTT) as recommended by the manufacturer. Total absorbance was measured at 492 and 690 nm (reference) using a microplate reader (ASYS, Eugendorf, Salzburg, Austria).

[11] = tested on: Caco-2 cells; set-up: method as in Schneider et al. (2003); conditions: ref Schneider et al. (2003); cited from earlier work
[12] = tested on: colonic aberrant crypt foci (ACF); set-up: method as in Suh et al., 2007; conditions: ref Suh et al., 2007; cited from earlier work
[13] = tested on: Colo 205 xenograft; set-up: method as in Pan et al., 2008; conditions: Colo 205 xenograft model of colon cancer; ref Pan et al., 2008; cited from earlier work
[14] = Chinese hamster, CHO-K1, 7.8 μM (lowest concentration)
[15] = human, HepG2, 7.8 μM (lowest concentration)

With `Oc1ccc(/C=C/c2cc(O)cc(O)c2)cc1` [Resveratrol] as the compound, how does the “prevention of formation of colon and intestinal tumors” value [1] read?
The value was 70%.

Which “fold more cytotoxic than the amino and ester” value [2] does the source give for `COc1ccc(/C=C\c2cc(OC)cc(OC)c2)cc1` [cis-TMS, (Z)-1,3-dimethoxy-5-(4-methoxystyryl)benzene] here?
Its value is “approximately 250 fold”.

And the “fold more cytotoxic than trans-TMS” value [2]?
The value was 128 fold.

And the bioavailability [3]?
Its bioavailability is “low bioavailability”.

What about the “mean micronucleus (MN) frequency” value ([4]; CHO-K1, 0.125 μM) of the same compound?
The value was 2.8 MN/100 cells.

What about the “mean micronucleus (MN) frequency” value ([4]; CHO-K1, 0.5 μM) of the same compound?
Its value is 5.2 MN/100 cells.

And the “nuclear bridges (NB)” value [5]?
Its value is “No significant induction”.

What about the “mean micronucleus (MN) frequency” value ([5]; HepG2, 0.125 μM) of the same compound?
Its value is 3.5 MN/100 cells.

And the “mean micronucleus (MN) frequency” value ([5]; HepG2, 0.5 μM)?
The value was 6.1 MN/100 cells.

And the “effect on tumor (volume, weight) in vivo” value [6]?
The value was “not active in vivo”.

What about the survival fraction ([7]; CHO-K1, 0.078 μM) of the same compound?
The survival fraction was 45.8%.

What about the survival fraction ([7]; CHO-K1, 0.156 μM) of the same compound?
Its survival fraction is 36.8%.

And the survival fraction ([7]; CHO-K1, 0.3125 μM)?
The survival fraction was 13.9%.

What about the “cells killed (clonogenic assay)” value ([7]; CHO-K1, all concentrations tested (2.5 μM upwards)) of the same compound?
The value was 100%.

What about the survival fraction ([8]; HepG2, 0.078 μM) of the same compound?
Its survival fraction is 41.3%.

What about the survival fraction ([8]; HepG2, 0.156 μM) of the same compound?
The survival fraction was 54.3%.

What about the survival fraction ([8]; HepG2, 0.3125 μM) of the same compound?
Its survival fraction is 16.9%.

What about the survival fraction ([8]; HepG2, 0.625 μM) of the same compound?
The survival fraction was 6.2%.

What about the “cells killed (clonogenic assay)” value ([8]; HepG2, at 2.5, 5 and 10 μM) of the same compound?
Its value is 100%.

And the tubulin polymerization [9]?
Its tubulin polymerization is “inhibited tubulin polymerization in a dose-dependent manner”.

And the viability at 24 h, 7.8 µM [10, 14]?
Its viability at 24 h, 7.8 µM is 60.7%.

What about the viability at 24 h, 7.8 µM [10, 15] of the same compound?
The viability at 24 h, 7.8 µM was 49%.

And the “cell cycle effect in Caco-2 cells” value [11]?
Its value is “arrest of the cell cycle progression at the G2/M transition phase”.

With `COc1cc(/C=C/c2ccc(O)cc2)cc(OC)c1` [pterostilbene] as the compound, how does the “formation of azoxymethane-induced colonic aberrant crypt foci (ACF)” value [12] read?
Its value is “reduced the formation”.

Which serum levels [3] does the source give for `COc1ccc(/C=C/c2cc(OC)cc(OC)c2)cc1` [trans-TMS, (E)-1,3-dimethoxy-5-(4-methoxystyryl)benzene] here?
The serum levels was “much higher serum levels than the cis-TMS”.

What about the tumor growth [13] of the same compound?
Its tumor growth is “significantly reduced tumor growth”.

And the “micronucleus (MN) frequency, result in words” value ([4]; CHO-K1, all concentrations, compared to NC)?
The value was “no significant MN frequency”.

And the “nuclear bridges (NB)” value [5]?
Its value is “No significant induction”.

And the “micronucleus (MN) frequency, result in words” value ([5]; HepG2, all tested concentrations)?
Its value is “significantly increased”.

What about the “effect on tumor (volume, weight) in vivo” value [6] of the same compound?
The value was “significantly reduced tumor volume; also recorded: significantly decreased tumor volume and weight”.

And the “concentration from which colony formation is significantly reduced” value ([7]; CHO-K1 (stated for both cell lines))?
The value was 5 µM.

What about the “frequency of survival fraction, result in words” value ([7]; CHO-K1, 2.5-20 μM) of the same compound?
Its value is “significant concentration-dependent reduction”.

And the “concentration from which colony formation is significantly reduced” value ([8]; HepG2 (stated for both cell lines))?
The value was 5 µM.

What about the “frequency of survival fraction, result in words” value ([8]; HepG2, 2.5-20 μM) of the same compound?
Its value is “significant concentration-dependent reduction”.

And the viability at 24 h, 7.8 µM [10, 14]?
Its viability at 24 h, 7.8 µM is 62.5%.

And the viability at 24 h, 7.8 µM [10, 15]?
Its viability at 24 h, 7.8 µM is 59.1%.

What about the “fold less effective in inhibiting the growth of Caco-2 cells than the cis isomer” value [11] of the same compound?
The value was 100 fold.
